Experimental data taken from patent US8796268B2, “Heteroaryls and uses thereof” (Millennium Pharmaceuticals, Inc., priority 2010, dated 2014).

How the values were obtained:
Human PI3K beta = target: T1, Human PI3K beta (Homo sapiens, UniProt P42338); experiment: Human PI3K beta enzyme assay (HTRF); assay type: biochemical; settings: for IC50: read-out: PI3 Kbeta IC50
T1 construct: His (N); host or cells: SF9 insect cells (baculovirus)
Source text: (§1) The catalytic subunits of PI3Ks are cloned into either pDEST8(p110 alpha) or pDEST10(p110beta, p110delta, and p110gamma) as N-terminal His tagged fusion proteins using the Gateway system (Invitrogen, catalog#11804-010 for pDEST8 and 11806-015 for pDEST10). The sequences are verified before recombinant protein expression using the Baculovirus Expression System with Gateway® Technology. The accession numbers for the subunits are as follows: • p110 alpha (GB:U79143) • p110beta (GB: S67334) • p110delta (GB: U86453) • p110gamma (GB: X83368) • The regulatory subunits of PI3Ks are cloned into pDEST8 as un-tagged protein using the Gateway system (Catalog#11804-010). The sequences are verified before recombinant protein expression using the Baculovirus Expression System with Gateway® Technology. The accession numbers for the subunits are as following: • p85 alpha (GB: BC030815) • p101(GB: AB028925) • VPS34 (accession number GB:BC033004) is cloned into pDEST20—Thombin as N-terminal GST tagged fusion proteins using the Gateway system (Invitrogen, catalog#11804-013). The sequences are verified before recombinant protein expression using the Baculovirus Expression System with Gateway® Technology.
(§2) For expression of the p110 complexes, the p85 (MOI of 4) is co-infected with p110 alpha, beta, and delta respectively (1MOI) in SF9 cells and harvested at 60 hours post co-infection. P110 gamma was infected at 1 MOI and harvested at 60 hours post infection.
(§3) For purification, PI3Ks are purified by Ni-NTA Agarose (Qiagen #30250) followed by Mono Q 10/100 GL (Ge Healthcare #17-5167-01). VPS34 is purified by Glutathione Sepharose 4 Fast Flow (GE Healthcare #17-5132-03) followed by HiTrap Q (GE Healthcare #17-1153-01).
(§4) 0.5 uL compounds in DMSO are added to wells of a 384 well microtitre plate (Corning 3575). At room temperature: 10 ul PI3K reaction buffer (50 mM Hepes, 5 mM DTT, 150 mM NaCl, 10 mM beta-glycerophosphate, 10 mM MgCl2, 0.25 mM sodium cholate and 0.001% CHAPS, pH 7.00) containing ATP (25 uM, Promega) is added followed immediately by 10 ul PI3K reaction buffer containing di-C8 P1(4,5)P2 (3.5 uM, CellSignals) and PI3Kalpha (0.4875 nM, Millennium Protein Sciences Group) and the mixture is incubated with shaking at room temperature for 30 minutes. Then 5 ul PI3K stop mix (50 mM Hepes, 5 mM DTT, 150 mM NaCl, 0.01% Tween-20, 15 mM EDTA and 25 nM biotin-PI(3,4,5)P3 (Echelon) is added to quench the reaction followed immediately by addition of 5 ul HTRF detection mix (50 mM Hepes, 5 mM DTT, 150 mM NaCl, 0.01% Tween-20, 40 mM KF, 1.0 nM GST:GRP-1 PH domain (Millennium Protein Sciences Group), 15 nM Streptavidin-XL (CisBio) and 0.375 nM anti-GST Eu++ antibody (CisBio) at pH 7.00). The plates are then incubated for 1 hour at room temperature with shaking and then read on a BMG PheraStar Plus reader.
2) Human PI3K beta, delta and gamma isoforms are tested using the procedure described for PI3K alpha above but with the following changes: PI3K beta (5.25 nM), PI3K delta (0.75 nM) and PI3K gamma (5 nM). All isoforms supplied by Millennium Protein Science Group.
(§5) For the assay methods described above, test compound percent inhibition, at various concentrations, is calculated relative to control (DMSO and EDTA) treated samples. Compound concentration versus percent inhibition curves are fitted to generate IC50 values. One skilled in the art will appreciate that the values generated either as percentage inhibition at a single concentration or IC50 values are subject to experimental variation.

Human PI3K alpha = target: T2, Human PI3K alpha (Homo sapiens, UniProt P42336); experiment: Human PI3K alpha enzyme assay (HTRF); assay type: biochemical; settings: for IC50: read-out: PI3Kalpha IC50
T2 construct: His (N); host or cells: SF9 insect cells (baculovirus)
Source text: as §1, §2, §3
1) Human PI3K alpha enzyme assay method
as §4, §5

T2 sequence (P42336 whole entry): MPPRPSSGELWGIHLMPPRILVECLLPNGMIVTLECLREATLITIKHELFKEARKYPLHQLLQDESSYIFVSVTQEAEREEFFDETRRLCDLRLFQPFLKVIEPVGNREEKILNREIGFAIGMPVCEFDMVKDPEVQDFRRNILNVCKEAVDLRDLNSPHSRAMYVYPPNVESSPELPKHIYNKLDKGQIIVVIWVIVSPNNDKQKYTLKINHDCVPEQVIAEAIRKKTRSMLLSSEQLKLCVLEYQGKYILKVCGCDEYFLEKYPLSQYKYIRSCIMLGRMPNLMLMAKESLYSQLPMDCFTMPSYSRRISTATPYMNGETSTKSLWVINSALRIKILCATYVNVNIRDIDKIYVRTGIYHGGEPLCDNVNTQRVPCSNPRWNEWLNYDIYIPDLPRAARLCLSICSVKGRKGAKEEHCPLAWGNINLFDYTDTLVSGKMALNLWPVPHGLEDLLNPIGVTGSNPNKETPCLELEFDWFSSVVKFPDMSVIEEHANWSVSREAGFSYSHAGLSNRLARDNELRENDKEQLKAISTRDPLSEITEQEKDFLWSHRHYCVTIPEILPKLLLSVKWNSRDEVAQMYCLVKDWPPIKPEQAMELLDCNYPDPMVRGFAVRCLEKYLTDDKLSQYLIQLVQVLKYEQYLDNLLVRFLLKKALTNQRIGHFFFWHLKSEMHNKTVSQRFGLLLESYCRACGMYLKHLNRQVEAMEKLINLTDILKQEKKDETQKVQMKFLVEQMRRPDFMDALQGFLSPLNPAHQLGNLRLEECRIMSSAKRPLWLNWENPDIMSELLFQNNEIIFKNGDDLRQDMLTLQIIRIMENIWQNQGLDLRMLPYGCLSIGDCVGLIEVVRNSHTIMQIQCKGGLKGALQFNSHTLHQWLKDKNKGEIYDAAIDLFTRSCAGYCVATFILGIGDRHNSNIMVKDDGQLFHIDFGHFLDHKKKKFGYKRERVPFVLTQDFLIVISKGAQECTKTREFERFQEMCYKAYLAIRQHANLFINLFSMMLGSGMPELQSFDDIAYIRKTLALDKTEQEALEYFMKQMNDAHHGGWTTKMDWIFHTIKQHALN
T2 sequence (P27986 whole entry partner): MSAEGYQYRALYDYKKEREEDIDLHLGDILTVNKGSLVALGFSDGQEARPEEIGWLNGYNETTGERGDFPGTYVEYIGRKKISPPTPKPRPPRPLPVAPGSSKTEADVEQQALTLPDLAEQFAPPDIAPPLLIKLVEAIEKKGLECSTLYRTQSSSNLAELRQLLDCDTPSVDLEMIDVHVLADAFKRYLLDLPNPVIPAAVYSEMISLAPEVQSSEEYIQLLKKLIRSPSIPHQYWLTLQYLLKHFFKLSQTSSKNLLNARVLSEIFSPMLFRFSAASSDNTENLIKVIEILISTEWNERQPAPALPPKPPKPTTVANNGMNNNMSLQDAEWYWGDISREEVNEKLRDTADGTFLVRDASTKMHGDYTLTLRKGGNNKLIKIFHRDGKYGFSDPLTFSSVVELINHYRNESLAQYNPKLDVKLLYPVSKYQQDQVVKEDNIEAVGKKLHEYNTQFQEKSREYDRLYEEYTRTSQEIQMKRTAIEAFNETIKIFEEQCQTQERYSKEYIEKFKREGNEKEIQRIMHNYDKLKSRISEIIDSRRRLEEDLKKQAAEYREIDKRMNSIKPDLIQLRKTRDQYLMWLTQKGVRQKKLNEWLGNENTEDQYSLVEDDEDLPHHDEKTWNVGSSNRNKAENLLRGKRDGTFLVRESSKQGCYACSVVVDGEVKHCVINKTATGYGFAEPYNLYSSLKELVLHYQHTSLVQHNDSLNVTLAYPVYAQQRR
T1 sequence (P42338 whole entry): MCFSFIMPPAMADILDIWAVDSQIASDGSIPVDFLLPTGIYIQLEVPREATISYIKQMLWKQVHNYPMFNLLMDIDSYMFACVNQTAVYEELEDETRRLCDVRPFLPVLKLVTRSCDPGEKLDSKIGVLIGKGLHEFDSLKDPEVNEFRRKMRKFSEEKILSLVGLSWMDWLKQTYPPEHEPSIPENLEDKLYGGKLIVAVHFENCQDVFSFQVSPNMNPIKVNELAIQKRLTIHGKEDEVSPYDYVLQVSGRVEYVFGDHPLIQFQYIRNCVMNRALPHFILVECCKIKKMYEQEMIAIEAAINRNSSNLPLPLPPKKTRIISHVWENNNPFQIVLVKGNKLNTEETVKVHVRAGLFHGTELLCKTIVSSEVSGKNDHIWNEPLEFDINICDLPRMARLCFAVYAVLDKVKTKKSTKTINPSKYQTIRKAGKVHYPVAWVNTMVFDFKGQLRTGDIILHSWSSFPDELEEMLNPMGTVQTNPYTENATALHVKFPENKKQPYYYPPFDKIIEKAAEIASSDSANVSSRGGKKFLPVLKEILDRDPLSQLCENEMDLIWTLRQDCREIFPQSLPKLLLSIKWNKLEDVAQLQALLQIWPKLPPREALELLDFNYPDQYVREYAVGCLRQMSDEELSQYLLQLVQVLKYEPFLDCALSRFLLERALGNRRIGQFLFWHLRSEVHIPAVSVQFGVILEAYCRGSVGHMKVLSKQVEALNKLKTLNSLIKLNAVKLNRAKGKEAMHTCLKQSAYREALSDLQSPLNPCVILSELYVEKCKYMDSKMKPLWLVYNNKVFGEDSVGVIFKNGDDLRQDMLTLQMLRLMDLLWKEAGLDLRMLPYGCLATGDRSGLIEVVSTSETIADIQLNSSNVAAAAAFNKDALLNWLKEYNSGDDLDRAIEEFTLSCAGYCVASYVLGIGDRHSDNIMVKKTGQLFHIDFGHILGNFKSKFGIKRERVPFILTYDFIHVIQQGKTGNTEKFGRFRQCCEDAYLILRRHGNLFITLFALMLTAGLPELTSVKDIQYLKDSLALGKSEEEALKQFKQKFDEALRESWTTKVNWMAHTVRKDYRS
T1 sequence (P27986 whole entry partner): as the sequence (P27986 whole entry partner) above

SMILES | IC50 (Human PI3K beta) | IC50 (Human PI3K alpha) | inhibition at 1.1 µM (Human PI3K beta; concentration not given, b1387 states 1.1 μM for PI3K α and β, read-out: p110 beta Percent Inhibition) | inhibition at 1.1 µM (Human PI3K alpha; concentration not given, b1387 states 1.1 μM for PI3K α and β, read-out: p110 alpha Percent Inhibition)
CN(C)[C@@H](c1ccc(Cl)cc1)c1cc(-c2ccncc2)sc1-c1nnc[nH]1 [Compound 65] | < 0.1 µM | > 1 µM | – | –
Cc1nn2ccccc2c1-c1nc(Cc2ccc(Cl)cc2)c(-c2nnc[nH]2)s1 [Compound 4, 3-[4-(4-chlorobenzyl)-5-(4H-1,2,4-triazol-3-yl)-1,3-thiazol-2-yl]-2-methylpyrazolo[1,5-a]pyridine] | 0.1 to 1 µM | 0.1 to 1 µM | – | –
O[C@H](c1ccc(Cl)cc1)c1cc(-c2ccnnc2)sc1-c1nnc[nH]1 [Compound 59] | < 0.1 µM | > 1 µM | – | –
Cc1nn2ccc(CNCCNC(=O)OC(C)(C)C)cc2c1-c1nc(Cc2ccc(Cl)cc2)c(-c2nnc[nH]2)s1 [Compound 82] | 0.1 to 1 µM | 0.1 to 1 µM | – | –
O[C@@H](c1ccc(Cl)cc1)c1nc(-c2ccncc2)sc1-c1nnc[nH]1 (single isomer, unassigned) [Compound 70, (4-chlorophenyl)[2-pyridin-4-yl-5-(1H-1,2,4-triazol-3-yl)-1,3-thiazol-4-yl]methanol] | 0.1 to 1 µM | > 1 µM | – | –
CC(=O)Nc1cc(-c2cc(C(O)(c3ccc(Cl)cc3)C3CCN(C)CC3)c(-c3nnc[nH]3)s2)ccn1 (stereo not drawn) [Compound 237, N-(4-{4-[(4-chlorophenyl)(hydroxy)(1-methylpiperidin-4-yl)methyl]-5-(4H-1,2,4-triazol-3-yl)-2-thienyl}pyridin-2-yl)acetamide] | – | – | 89% | 61%
O[C@@H](c1ccc(Cl)cc1)c1cc(-c2ccnnc2)sc1-c1nnc[nH]1 [Compound 55] | > 1 µM | > 1 µM | – | –
OC(c1ccc(Cl)cc1)c1cc(-c2ccnc(Cl)c2)sc1-c1nnc[nH]1 (stereo not drawn) [Compound 14] | < 0.1 µM | 0.1 to 1 µM | – | –
Cc1nn2ccc(CNC(=N)N)cc2c1-c1nc(Cc2ccc(Cl)cc2)c(-c2nnc[nH]2)s1 [Compound 35, N-({3-[4-(4-chlorobenzyl)-5-(4H-1,2,4-triazol-3-yl)-1,3-thiazol-2-yl]-2-methylpyrazolo[1,5-a]pyridin-5-yl}methyl)guanidine] | 0.1 to 1 µM | 0.1 to 1 µM | – | –
O=C(O)c1sc(-c2ccncc2)nc1Cc1ccc(Cl)cc1 [Compound 80, 4-(4-chlorobenzyl)-2-(pyridin-4-yl)thiazole-5-carboxylic acid] | < 0.1 µM | > 1 µM | – | –
CC(=O)Nc1cc(-c2nc(C(O)c3ccc(Cl)cc3)c(-c3ncc[nH]3)s2)ccn1 (stereo not drawn) [Compound 60, N-{4-[4-[(4-chlorophenyl)(hydroxy)methyl]-5-(1H-imidazol-2-yl)-1,3-thiazol-2-yl]pyridin-2-yl}acetamide] | 0.1 to 1 µM | > 1 µM | – | –
CC(=O)Nc1cc(-c2nc(Cc3ccc(Cl)cc3)c(-c3ncc[nH]3)s2)ccn1 [Compound 73] | 0.1 to 1 µM | > 1 µM | – | –
CC(=O)Nc1cc(-c2cc(C(c3ccc(Cl)cc3)N3CCC3)c(-c3nnc[nH]3)s2)ccn1 (stereo not drawn) [Compound 90] | < 0.1 µM | 0.1 to 1 µM | – | –
Cc1nn2ccc(CN)cc2c1-c1nc(Cc2ccc(Cl)cc2)c(-c2nnc[nH]2)s1 [Compound 1, 1-{3-[4-(4-chlorobenzyl)-5-(4H-1,2,4-triazol-3-yl)-1,3-thiazol-2-yl]-2-methylpyrazolo[1,5-a]pyridin-5-yl}methanamine] | 0.1 to 1 µM | 0.1 to 1 µM | – | –
CN(C)[C@H](c1ccc(Cl)cc1)c1cc(-c2ccncc2)sc1-c1nnc[nH]1 [Compound 44] | < 0.1 µM | > 1 µM | – | –
CC(=O)Nc1cc(-c2sc(-c3nnc[nH]3)c(Cc3ccc(Cl)cc3)c2C#N)ccn1 [Compound 71, N-{4-[4-(4-chlorobenzyl)-3-cyano-5-(4H-1,2,4-triazol-3-yl)-2-thienyl]pyridin-2-yl}acetamide] | 0.1 to 1 µM | 0.1 to 1 µM | – | –
OC(c1ccc(Cl)cc1)c1cc(-c2ccnc3[nH]ccc23)sc1-c1nnc[nH]1 (stereo not drawn) [Compound 10] | 0.1 to 1 µM | 0.1 to 1 µM | – | –
Clc1ccc(Cc2nc(-c3ccnnc3)sc2-c2nnc[nH]2)cc1 [Compound 39] | 0.1 to 1 µM | > 1 µM | – | –
